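Five concentrations, 48 hours, 96-well plates. TGI: total growth inhibition.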
Tests used:
Test in all cases: NCI tumour cell line growth inhibition, 48 h
RPMI-8226 leukemia = system: RPMI-8226 leukemia
NCI/ADR-RES ovarian = system: NCI/ADR-RES ovarian
SF-539 CNS = system: SF-539 CNS
MALME-3M melanoma = system: MALME-3M melanoma
LOX IMVI melanoma = system: LOX IMVI melanoma
HT29 colon = system: HT29 colon
SW-620 colon = system: SW-620 colon
SN12C renal = system: SN12C renal
HCT-15 colon = system: HCT-15 colon
HL-60(TB) leukemia = system: HL-60(TB) leukemia
HOP-62 NSCLC = system: HOP-62 NSCLC
SK-OV-3 ovarian = system: SK-OV-3 ovarian
NCI-H226 lung = system: NCI-H226 lung
P388 leukemia = system: P388 leukemia
CCRF-CEM leukemia = system: CCRF-CEM leukemia
A549 NSCLC = system: A549 NSCLC
HCT-116 colon = system: HCT-116 colon
A498 renal = system: A498 renal
DMS 114 small cell lung = system: DMS 114 small cell lung
SK-MEL-28 melanoma = system: SK-MEL-28 melanoma
SF-268 CNS = system: SF-268 CNS
HOP-18 NSCLC = system: HOP-18 NSCLC
M19-MEL melanoma = system: M19-MEL melanoma
SNB-78 CNS = system: SNB-78 CNS
OVCAR-4 ovarian = system: OVCAR-4 ovarian
KM20L2 colon = system: KM20L2 colon
SK-MEL-5 melanoma = system: SK-MEL-5 melanoma
IGROV1 ovarian = system: IGROV1 ovarian
NCI-H522 lung = system: NCI-H522 lung
NCI-H23 lung = system: NCI-H23 lung
UACC-62 melanoma = system: UACC-62 melanoma
SK-MEL-2 melanoma = system: SK-MEL-2 melanoma
OVCAR-5 ovarian = system: OVCAR-5 ovarian
XF 498 CNS = system: XF 498 CNS
UACC-257 melanoma = system: UACC-257 melanoma
DMS 273 small cell lung = system: DMS 273 small cell lung
COLO 205 colon = system: COLO 205 colon
SNB-75 CNS = system: SNB-75 CNS
DLD-1 colon = system: DLD-1 colon
SN12K1 renal = system: SN12K1 renal
UO-31 renal = system: UO-31 renal
EKVX NSCLC = system: EKVX NSCLC
SNB-19 CNS = system: SNB-19 CNS
CAKI-1 renal = system: CAKI-1 renal
U251 CNS = system: U251 CNS
HOP-92 NSCLC = system: HOP-92 NSCLC
MOLT-4 leukemia = system: MOLT-4 leukemia
MCF7 breast = system: MCF7 breast
RXF 393 renal = system: RXF 393 renal
SF-295 CNS = system: SF-295 CNS
HCC-2998 colon = system: HCC-2998 colon
OVCAR-8 ovarian = system: OVCAR-8 ovarian
OVCAR-3 ovarian = system: OVCAR-3 ovarian
K-562 leukemia = system: K-562 leukemia
NCI-H460 lung = system: NCI-H460 lung
P388/ADR leukemia = system: P388/ADR leukemia
KM12 colon = system: KM12 colon

COc1ccc2cc1Oc1ccc(cc1)C[C@H]1c3cc(c(OC)cc3CCN1C)Oc1c(O)c(OC)cc3c1[C@H](C2)N(C)CC3
TGI (RPMI-8226 leukemia): 75.2 µM | TGI (NCI/ADR-RES ovarian): 77.1 µM | TGI (SF-539 CNS): 41.6 µM | TGI (MALME-3M melanoma): 52.5 µM | TGI (LOX IMVI melanoma): 26.7 µM | TGI (HT29 colon): 55.2 µM | TGI (SW-620 colon): 37.2 µM | TGI (SN12C renal): 88.8 µM | TGI (HCT-15 colon): 33.5 µM | TGI (HL-60(TB) leukemia): 48.2 µM | TGI (HOP-62 NSCLC): 65.7 µM | TGI (SK-OV-3 ovarian): 44.5 µM | TGI (NCI-H226 lung): 63 µM | TGI (P388 leukemia): 19.8 µM | TGI (CCRF-CEM leukemia): 83.8 µM | TGI (A549 NSCLC): 75 µM | TGI (HCT-116 colon): 36 µM | TGI (A498 renal): 50.4 µM | TGI (DMS 114 small cell lung): 49.7 µM | TGI (SK-MEL-28 melanoma): 48.3 µM | TGI (SF-268 CNS): 150 µM | TGI (HOP-18 NSCLC): 139 µM | TGI (M19-MEL melanoma): 43.4 µM | TGI (SNB-78 CNS): 117 µM | TGI (OVCAR-4 ovarian): 58.1 µM | TGI (KM20L2 colon): 4.27 µM | TGI (SK-MEL-5 melanoma): 29.4 µM | TGI (IGROV1 ovarian): 65.8 µM | TGI (NCI-H522 lung): 55.7 µM | TGI (NCI-H23 lung): 95.5 µM | TGI (UACC-62 melanoma): 44.7 µM | TGI (SK-MEL-2 melanoma): 48.5 µM | TGI (OVCAR-5 ovarian): 99.6 µM | TGI (XF 498 CNS): 49.4 µM | TGI (UACC-257 melanoma): 30.1 µM | TGI (DMS 273 small cell lung): 40.1 µM | TGI (COLO 205 colon): 39.4 µM | TGI (SNB-75 CNS): 52 µM | TGI (DLD-1 colon): 53.7 µM | TGI (SN12K1 renal): 39.2 µM | TGI (UO-31 renal): 58.8 µM | TGI (EKVX NSCLC): 8.53 µM | TGI (SNB-19 CNS): 134 µM | TGI (CAKI-1 renal): 3.55 µM | TGI (U251 CNS): 60.3 µM | TGI (HOP-92 NSCLC): 26.9 µM | TGI (MOLT-4 leukemia): 26.4 µM | TGI (MCF7 breast): 51.5 µM | TGI (RXF 393 renal): 45 µM | TGI (SF-295 CNS): 39.7 µM | TGI (HCC-2998 colon): 24.7 µM | TGI (OVCAR-8 ovarian): 8.43 µM | TGI (OVCAR-3 ovarian): 46.8 µM | TGI (K-562 leukemia): 83.5 µM | TGI (NCI-H460 lung): 45.2 µM | TGI (P388/ADR leukemia): 109 µM | TGI (KM12 colon): 42.6 µM

Reference: PubChem BioAssay (NCI)
